Assay: aqueous solubility in buffer
Assay type: physicochemical
Conditions: buffer of pH 6.5 (close to the pH of the intestine)
Experimental: However, like many other HIV protease inhibitors, these compounds are characteristically lipophilic and thus poorly water soluble. For example, the compound of formula I has an aqueous solubility about 1 μg/ml in the buffer of pH 6.5 (close to the pH of the intestine), which is considered as extremely poor aqueous solubility and would be expected to provide very low oral bioavailability in the free acid form.

solubility: ~1 µg/mL
SMILES: CCC[C@@]1(CCc2ccccc2)CC(O)=C([C@H](CC)c2cccc(NS(=O)(=O)c3ccc(C(F)(F)F)cn3)c2)C(=O)O1 [compound of formula I]

— US6531139B1, “Self-emulsifying formulation for lipophilic compounds” (Pharmacia & Upjohn Company, priority 1997, dated 2003)
